US12440493B2, “Combination therapy for treating cancer comprising substituted piperazines” (Eli Lilly and Company, priority 2020, dated 2025)
Where “and” joins values, the source holds several entries; their conditions need not be identical. Identical values can stand only once.

Tests used:
[1] = tested on: IDH1(R132H) primary human AML cells; assay: AML clearance in peripheral blood (flow cytometry, % hCD33+hCD45+ of total white cells), human AML PDx models in NSG mice; format: in vivo; conditions: for AML clearance (% hCD33 + hCD45+ (of total white cells)): 2 mg/kg Cytarabine, IP, (QDx5, rest2)X2) 14 days off)x2, each value one animal, 2 mg/kg
Description: (§1) Compounds and Formulation. For in vivo studies, each test article is prepared at an appropriate concentration with vehicle. […] Compound A is prepared fresh at the appropriate concentrations with vehicle every 7 days and stored at 4° C. between doses. […] Cytarabine is prepared fresh weekly by dilution with sterile saline from stock solution of Cytarabine (injection 20 mg/mL, (Pfizer injectables')). Azacitidine (Sigma, Lot #MKBR7212) is formulated in sterile water and is prepared fresh daily immediately before dosing. In vivo human AML PDx models. […] Two models are used in the studies: […] As needed, splenocytes from tumor-bearing mice are used to propagate and expand the models, as described. Each test article is prepared as described above at an appropriate concentration with vehicle to give animals the doses tested in this study at a dosing volume of 10 μL/gram body weight. Mice receiving Compound A (PO, QD) are treated at the indicated doses for the duration of the study. The combination agents are dosed as follows: […] Treated mice are assessed in comparison to vehicle treated and naïve (non-tumor bearing) control mice. Body weight is recorded twice per week. […] AML PDx model propagation. […] Spleens are processed and splenocytes isolated as described below. Two hundred μL per subject of the splenocyte prep is injected IV (intravenous, tail vein) into recipient NSG mice. […] Once engraftment is confirmed, the mice are monitored biweekly until ready to be put on study. […] Submandibular blood is collected. Spleen/Splenocyte Processing and Prep. After excision, a spleen is weighed, and […] is placed in a standard sterile 15 mL polypropylene conical tube containing PBS, and placed on ice. […] The spleen is placed in ice cold sterile PBS in a 15 mL collection tube. The spleen is removed from the collection tube and placed in a 100 micron 50 mL conical tube cell strainer (BD Falcon #352360). The spleen is processed by gentle rubbing of the spleen tissue against the surface of the cell strainer with the end of a 5 mL syringe plunger in a circular motion. The surface of the strainer is rinsed with 10 mL room temperature sterile DPBS (HyClone SH30028) 3 times during the process. […] The cell pellet is collected by centrifugation (300×g) and washed three times with 30 mL sterile DPBS. The cells are counted and resuspended in DPBS at the desired implant concentration. Bone Marrow Collection. […] Flow cytometry analysis of human white cells. Submandibular blood samples from in vivo studies are collected. Fluor-conjugated antibody stains are added according to the manufacturer's instructions (anti-human CD33-PE (clone WM53, BD Cat #555450), anti-human CD14-APC (clone MφpP9, BD Cat #340436), anti-human CD15-V450 (clone HI98, BD Cat #561584), anti-human CD117-BV421 (clone YB5.B8, BD Cat #562434), anti-human […]7 (clone ICRF44, BD Cat #557754), anti-human […]7 (clone HI30, BD Cat #557748), and anti-human CD3-FITC (clone SK7, BD Cat #340542)). The samples are incubated for 30 minutes at room temperature, protected from light. After the incubation, 1.5 mL 1×BD Lyse/Fix (37° C., (BD #558049)) is added to each sample and incubated for 12 minutes at room temperature. The tubes are centrifuged at 300×g for 7 minutes. BD Lyse/Fix solution is aspirated and the cell pellet washed with stain/wash buffer 3 times (1 wash step consisted of: pellet resuspended in 3 mL stain/wash buffer, centrifuged at 300×g, aspirated wash). Fixed cells are then resuspended in 300 to 400 μL stain/wash buffer. Samples are analyzed on a Becton Dickinson FACSVerse Flow cytometer (Cat #651155 Serial #Z6511550447) using standard flow cytometry principles and techniques. Samples are analyzed on the same day as they are stained and fixed. Population gating and data analysis of percent population are performed in the FACSuite software on the FACSVerse cytometer. Percent population values from the data analysis are plotted in Graphpad Prism or in JMP13. […]

[2] = tested on: IDH1(R132H) primary human AML cells; assay: AML cell differentiation in blood (flow cytometry, % hCD33+hCD11b+ of hCD45+ cells), human AML PDx models in NSG mice; format: in vivo; conditions: for AML cell differentiation (% hCD33 + hCD11b+ (of hCD45+ cells)): 2 mg/kg Cytarabine, IP, (QDx5, rest2)X2) 14 days off)x2, each value one animal, 2 mg/kg
Description: as §1

[3] = tested on: IDH1(R132H) primary human AML cells; assay: Bone marrow AML clearance (flow cytometry), human AML PDx models in NSG mice; format: in vivo
Description: as §1

2-HG production = assay: Plasma 2-HG inhibition (LC-MS metabolite analysis in plasma of AML PDx model); format: in vivo, human
[4] = 2 mg/kg Cytarabine, IP, (QDx5, rest2)X2) 14 days off) × 2, each line one animal
[5] = 2 mg/kg Cytarabine, IP, (QDx5, rest2)X2) 14 days off)x2, each line one animal

`Nc1ccn([C@@H]2O[C@H](CO)[C@@H](O)[C@@H]2O)c(=O)n1` [Cytarabine, reference compound] was tested, and the “AML clearance (% hCD33 + hCD45+ (of total white cells))” value ([1]; Treatment day 18) was 8.04% and 3.22% and 3.24% and 8.64% and 3.23% and 3.50% and 4.40%, the “AML clearance (% hCD33 + hCD45+ (of total white cells))” value ([1]; Treatment day 34) was 9.07% and 2.02% and 3.5% and 2.54% and 1.79% and 2.04% and the “AML clearance (% hCD33 + hCD45+ (of total white cells))” value ([1]; Treatment day 47) was 8.25% and 8.31% and 5.29% and 4.92% and 2.29% and 4.71% and 5.51%. The “AML clearance (% hCD33 + hCD45+ (of total white cells))” value ([1]; Treatment day 61) was 17.63% and 29.86% and 14.99% and 42.59% and 15.49% and 29.04% and 29.58%, the “AML clearance (% hCD33 + hCD45+ (of total white cells))” value ([1]; Treatment day 75) was 56.57% and 60.59% and 22.85% and 59.75% and 36.77% and 44.17% and the “AML clearance (% hCD33 + hCD45+ (of total white cells))” value ([1]; Treatment day 89) was 76.67% and 78.11% and 57.04% and 81.53% and 79.57% and 68.92%. For the same compound, the “AML clearance (% hCD33 + hCD45+ (of total white cells))” value ([1]; Treatment day −3) was 21.32% and 14.8% and 13.68% and 21.94% and 21.7% and 20% and 17.15%, the “% peripheral blood AML cells (treatment group value)” value ([1]; day 47, group C: cytarabine (2 mg/kg), vehicle 86%) was 5.2% and the “AML cell differentiation (% hCD33 + hCD11b+ (of hCD45+ cells))” value ([2]; Treatment day 18) was 15.93% and 18.69% and 13.00% and 11.66% and 14.07% and 10.70% and 11.81%. The “AML cell differentiation (% hCD33 + hCD11b+ (of hCD45+ cells))” value ([2]; Treatment day 34) was 37.13% and 33.07% and 31.02% and 31.17% and 33.03% and 37.1%, the “AML cell differentiation (% hCD33 + hCD11b+ (of hCD45+ cells))” value ([2]; Treatment day 47) was 8.3% and 7.84% and 7.69% and 5.82% and 16.79% and 5.09% and 7.21% and the “AML cell differentiation (% hCD33 + hCD11b+ (of hCD45+ cells))” value ([2]; Treatment day 61) was 9.5% and 8.65% and 9.29% and 6.94% and 10.6% and 7.78% and 8.46%. For the same compound, the “AML cell differentiation (% hCD33 + hCD11b+ (of hCD45+ cells))” value ([2]; Treatment day 75) was 5.65% and 7.65% and 11.09% and 11.48% and 10% and 10.46%, the “AML cell differentiation (% hCD33 + hCD11b+ (of hCD45+ cells))” value ([2]; Treatment day 89) was 8.75% and 10.17% and 8.87% and 18.02% and 12.49% and 11.08% and the “AML cell differentiation (% hCD33 + hCD11b+ (of hCD45+ cells))” value ([2]; Treatment day −3) was 16.46% and 20.43% and 14.95% and 8.62% and 13.39% and 10.09% and 12.17%. For the same compound, the “% AML cell differentiation (treatment group value)” value ([2]; day 47, group C: cytarabine (2 mg/kg), vehicle 10%) was 8%, the “Bone Marrow AML Clearance: % hCD33 + hCD45+ (% of white cells)” value [3, 4] was 64.38% and 75.48% and 39.66% and 80.32% and the “Bone Marrow AML Clearance: % hCD45+ (% of white cells)” value [3, 4] was 71.88% and 78.06% and 44.54% and 80.75%. For the same compound, the “% human AML cells in bone marrow (of white cells; lower = more clearance)” value ([3]; group C: cytarabine (2 mg/kg), vehicle 94%) was 63%, the “% Inhibition of 2-HG (plasma)” value (2-HG production; [5]) was 78.844% and 68.361% and 88.982% and 79.768% and 71.68% and 76.685% and 68.331% and the “Naive Subtracted 2-HG (plasma)” value (2-HG production; [5]) was 2.348 µM and 3.512 µM and 1.223 µM and 2.246 µM and 3.143 µM and 2.588 µM and 3.515 µM. The “Plasma 2-HG” value (2-HG production; [5]) was 3.256 µM and 4.42 µM and 2.131 µM and 3.154 µM and 4.051 µM and 3.496 µM and 4.423 µM and the “% plasma 2-HG (treatment group value)” value (2-HG production; group C: cytarabine (2 mg/kg), vehicle 100%) was 24%.
